Assay [1] deals with T1, AKeco (Escherichia coli, UniProt P69441). The note with it: binding to AKeco; cited from earlier work.
The next assay concerns the target LcrG (Yersinia pseudotuberculosis serotype I, UniProt P69958). As to the kind of experiment: biochemical. It is filed as binding.
For assay [2], the system named is AKeco (E. coli adenylate kinase). The conditions noted are these: cited from earlier work.
Assay [3] addresses T2, AK3 (Homo sapiens, UniProt Q9UIJ7). Description: isothermal titration calorimetry. It is filed as binding. The conditions noted are these: for ΔHITC0: ITC binding enthalpy; for ΔHITC0 / −TΔSITC0 / ΔGITC0 / Kd: 25 °C; for −TΔSITC0: ITC binding entropy term; for ΔGITC0: ITC binding free energy; for n: ITC binding ratio (stoichiometry); for Kd: ITC. Background: ITC needs no label: the signal is the heat of the interaction.

The target of assay [4] is T1, AKeco. As to the kind of experiment: NMR titration of ATP to AKeco with adenosine binding sites blocked by AP5A. Also noted: species or system E. coli.
For another assay, the target named is human α-synuclein (Homo sapiens, UniProt P37840). Description: NMR titration of ATP to α-synuclein. It is filed as binding.
Assay [5] concerns the target T2, AK3. Description: NMR 15N-HSQC chemical shift titration of ligand binding to AK3.
The target of assay [6] is T2, AK3. Description: biochemical. The note with it: KI´ (competitive inhibition), mixed inhibition model, 1.7 mM ATP, AMP variation.
Assay [7] has as its target T2, AK3. As to the kind of experiment: coupled enzymatic assay of AK3 activity. It is filed as biochemical.
Where [8] appears, read: Table 2, average of three technical replicates, pH 7.0.

The values that follow come from publication PMC8325564 (Biochemistry, 2020).

Several values for one entry are separate records, joined by “and”; a condition that tells them apart may be missing. Identical values can stand only once. Like-named read-outs stand apart in the source and are kept apart here.

T2 sequence (Q9UIJ7 whole entry): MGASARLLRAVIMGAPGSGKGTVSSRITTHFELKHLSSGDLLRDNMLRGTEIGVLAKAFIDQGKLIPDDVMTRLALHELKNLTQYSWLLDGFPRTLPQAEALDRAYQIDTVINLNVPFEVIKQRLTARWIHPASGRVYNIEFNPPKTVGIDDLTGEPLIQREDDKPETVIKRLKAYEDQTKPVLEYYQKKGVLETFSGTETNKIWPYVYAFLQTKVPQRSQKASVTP
T1 sequence (P69441 whole entry): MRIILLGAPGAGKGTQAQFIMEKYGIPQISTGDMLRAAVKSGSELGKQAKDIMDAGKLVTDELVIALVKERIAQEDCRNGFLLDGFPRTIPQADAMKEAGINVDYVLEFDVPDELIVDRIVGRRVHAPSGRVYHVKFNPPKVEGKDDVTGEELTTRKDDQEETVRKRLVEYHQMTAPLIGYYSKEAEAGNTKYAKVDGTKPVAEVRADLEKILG
LcrG, sequence (P69958 whole entry, looked up): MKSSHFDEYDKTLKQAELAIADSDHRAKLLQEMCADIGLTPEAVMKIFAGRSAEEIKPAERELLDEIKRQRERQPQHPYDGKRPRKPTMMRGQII

Take `Nc1ncnc2c1ncn2[C@@H]1O[C@H](COP(=O)(O)O)[C@@H](O)[C@H]1O` [AMP, adenosine monophosphate]: at AKeco [1], the Kd – broadly, the equilibrium constant for the complex coming apart – was 210 ± 66 µM.
Turning to `Nc1ncnc2c1ncn2[C@@H]1O[C@H](COP(=O)(O)OP(=O)(O)OP(=O)(O)O)[C@@H](O)[C@H]1O` [ATP, adenosine triphosphate], the Kd at LcrG is 12000 ± 800 µM; at AK3 [3] (30 mM MOPS pH 7.0, 50 mM NaCl), roughly 13 µM; on AK3 [3] (setting [8]), 13 ± 2 µM; at AKeco [4], 12000 ± 2100 µM; on AKeco [1], 50 µM; on human α-synuclein, 13000 ± 2400 µM. On AK3 [5], the Kd was 9000 ± 3800 µM. In addition, the Km (in general, the concentration of substrate that gives half-maximal velocity) in assay [2] (AKeco with ATP) is 63 ± 7 µM. The “difference of the catalytic activity between ATP and GTP” value in [2] (AKeco) is recorded as 60 fold. Further, at AK3 [3] (pH 7.0), the ΔHITC0 is −11.1 ± 0.5 kcalmol^−1. In addition, the “−TΔSITC0” value at AK3 [3] (pH 7.0) stood at 4.4 ± 0.6 kcalmol^−1. The ΔGITC0 at AK3 [3] (pH 7.0) is recorded as −6.7 ± 0.1 kcalmol^−1. For the same compound, at AK3 [3], the n stood at 0.94 ± 0.015. In addition, at AK3 [6], the Ki (commonly a measure of affinity in units of concentration, obtained from inhibition or displacement) was found to be 200 µM.
As for `Nc1nc2c(ncn2[C@@H]2O[C@H](COP(=O)(O)OP(=O)(O)OP(=O)(O)O)[C@@H](O)[C@H]2O)c(=O)[nH]1` [GTP, guanosine triphosphate], on AK3 [7], the “catalytic GTP versus ATP specificity” value was roughly 40 fold. Also, at AK3 [3] (pH 7.0), the ΔHITC0 is reported as −11.3 ± 0.3 kcalmol^−1, the “−TΔSITC0” value was determined as 3.5 ± 0.4 kcalmol^−1 and the ΔGITC0 is given as −7.8 ± 0.1 kcalmol^−1. Moreover, the n on AK3 [3] turned out to be 1.07 ± 0.025. Besides, the Kd at AK3 [3] (30 mM MOPS pH 7.0, 50 mM NaCl) is ~2 µM and 2 µM. This compound also yielded a Kd at AK3 [3] (setting [8]) of 2.1 ± 0.5 µM. Moreover, the Kd at AK3 [5] stood at 1700 ± 1000 µM.
